Test [1] relates to CCRF-CEM. Nature of the test: Anticancer activity against human CCRF-CEM cells assessed as cell viability at 100 uM after 48 hrs by MTT assay. Type of test: functional. The settings on record: read-out: Activity. Background: Tetrazolium assays rely on reduction of a dye to a coloured formazan, in cell work by metabolically active cells.
For test [2], the system named is CCRF-CEM. The test is described as follows: Anticancer activity against human CCRF-CEM cells assessed as cell viability at 100 uM after 24 hrs by MTT assay. The settings on record: read-out: Activity. Type of test: functional.
Test [3] concerns MCF7. The test is described as follows: Anticancer activity against human MCF7 cells assessed as cell viability at 12.5 uM after 24 hrs by MTT assay. The class given is functional. The settings on record: MCF7, 24 h, read-out: Activity.
Test [4] has as its system MCF7. The test is described as follows: Anticancer activity against human MCF7 cells assessed as cell viability at 12.5 uM after 48 hrs by MTT assay. The class given is functional. As to conditions: MCF7, 48 h, read-out: Activity.
Test [5] deals with MCF7. The test is described as follows: Anticancer activity against human MCF7 cells assessed as cell viability at 50 uM after 24 hrs by MTT assay. Type of test: functional. The settings on record: MCF7, 24 h, read-out: Activity.
The subject of test [6] is CCRF-CEM. Nature of the test: Anticancer activity against human CCRF-CEM cells assessed as cell viability at 12.5 uM after 24 hrs by MTT assay. Type of test: functional. As to conditions: read-out: Activity.
Test [7] relates to CCRF-CEM. Nature of the test: Anticancer activity against human CCRF-CEM cells assessed as cell viability at 12.5 uM after 48 hrs by MTT assay. Type of test: functional. As to conditions: read-out: Activity.
The test system of test [8] is CCRF-CEM. The test is described as follows: Anticancer activity against human CCRF-CEM cells assessed as cell viability at 25 uM after 24 hrs by MTT assay. The class given is functional. The settings on record: read-out: Activity.
Test [9] has as its system MCF7. Nature of the test: Anticancer activity against human MCF7 cells assessed as cell viability at 25 uM after 48 hrs by MTT assay. As to conditions: MCF7, 48 h, read-out: Activity. The class given is functional.
The test system of test [10] is MCF7. Nature of the test: Anticancer activity against human MCF7 cells assessed as cell viability at 50 uM after 48 hrs by MTT assay. Type of test: functional. The settings on record: MCF7, 48 h, read-out: Activity.
Test [11] relates to CCRF-CEM. Nature of the test: Anticancer activity against human CCRF-CEM cells assessed as cell viability at 50 uM after 48 hrs by MTT assay. The class given is functional. The settings on record: read-out: Activity.
Test [12] relates to MCF7. The test is described as follows: Anticancer activity against human MCF7 cells assessed as cell viability at 25 uM after 24 hrs by MTT assay. The class given is functional. The settings on record: MCF7, 24 h, read-out: Activity.
In test [13] the test system is CCRF-CEM. Nature of the test: Anticancer activity against human CCRF-CEM cells assessed as cell viability at 25 uM after 48 hrs by MTT assay. Type of test: functional. The settings on record: read-out: Activity.
Test [14] relates to CCRF-CEM. The test is described as follows: Anticancer activity against human CCRF-CEM cells assessed as cell viability at 50 uM after 24 hrs by MTT assay. Type of test: functional. As to conditions: read-out: Activity.
Test [15] concerns MCF7. Nature of the test: Anticancer activity against human MCF7 cells assessed as cell viability at 100 uM after 24 hrs by MTT assay. The class given is functional. The settings on record: MCF7, 24 h, read-out: Activity.
Test [16] deals with MCF7. The test is described as follows: Anticancer activity against human MCF7 cells assessed as cell viability at 100 uM after 48 hrs by MTT assay. Type of test: functional. The settings on record: MCF7, 48 h, read-out: Activity.
Test [17] addresses Casein kinase II subunit alpha (Homo sapiens) (UniProt P68400). The test is described as follows: Inhibition of human CK2alpha using RRRDDDSDDD peptide substrate at 20 uM by P81 filter-binding assay. The arrangement: scale not given: the % may be the effect or the level left.
Test [18] has the same target. Nature of the test: Inhibition of human CK2alpha using RRRDDDSDDD peptide substrate at 200 uM by P81 filter-binding assay. The arrangement: scale not given: the % may be the effect or the level left.

Sequence of Casein kinase II subunit alpha (Homo sapiens) (P68400 whole entry, looked up): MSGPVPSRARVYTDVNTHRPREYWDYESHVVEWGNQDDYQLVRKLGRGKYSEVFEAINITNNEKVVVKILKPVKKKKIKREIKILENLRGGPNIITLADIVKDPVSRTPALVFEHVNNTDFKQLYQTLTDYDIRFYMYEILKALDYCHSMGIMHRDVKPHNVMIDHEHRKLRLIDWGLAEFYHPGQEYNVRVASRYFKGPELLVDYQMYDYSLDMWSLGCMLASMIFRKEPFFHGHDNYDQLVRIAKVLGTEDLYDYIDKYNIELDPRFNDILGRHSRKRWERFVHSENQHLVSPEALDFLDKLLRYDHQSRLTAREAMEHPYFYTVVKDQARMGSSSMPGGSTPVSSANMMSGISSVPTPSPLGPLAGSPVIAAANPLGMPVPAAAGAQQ

`CC(O)CCn1nc2c(Br)c(Br)c(Br)c(Br)c2n1` (racemic): the viability at 100 µM amounted to 0% in the test on CCRF-CEM [1], 3% in the test with CCRF-CEM [2], 57% in the test with MCF7 [15] and 0% in the test with MCF7 [16]. Besides, the viability at 12.5 µM with MCF7 [3] is 99%; with MCF7 [4] it was 79%; with CCRF-CEM [6], 106%; in the test with CCRF-CEM [7] it was 94%. For the same molecule, the viability at 50 µM is 90% with MCF7 [5], 76% in the test on MCF7 [10], 45% in the test on CCRF-CEM [11] and 89% in the test with CCRF-CEM [14]. Further, the viability at 25 µM in the test with CCRF-CEM [8] came to 113%; in the test on MCF7 [9], 73%; with MCF7 [12] it was 102%; in the test with CCRF-CEM [13] it was 86%.

For the molecule `OC(CCn1nc2c(Br)c(Br)c(Br)c(Br)c2n1)c1cccc(Cl)c1` (stereo not given), the viability at 100 µM came out at 0% with CCRF-CEM [1], 0% in the test on CCRF-CEM [2], 0% in the test with MCF7 [15] and 0.5% with MCF7 [16]. Besides, the viability at 12.5 µM with MCF7 [3] is 97%; in the test on MCF7 [4], 107%; with CCRF-CEM [6] it was 110%; in the test with CCRF-CEM [7] it was 70%. In addition, the results for the Activity in test [17] and in test [18] were 74.9% and 23.8%, respectively. In addition, the viability at 50 µM in the test with MCF7 [5] stood at 28%; in the test with MCF7 [10] it was 12%; with CCRF-CEM [11], 0%; with CCRF-CEM [14] it was 71%. Further, the viability at 25 µM with CCRF-CEM [8] worked out at 118%; with MCF7 [9], 101%; in the test with MCF7 [12], 96%; in the test on CCRF-CEM [13], 68%.

Regarding `OC(CCn1nc2c(Br)c(Br)c(Br)c(Br)c2n1)c1ccc(F)cc1` (stereo not given), the viability at 100 µM in the test with CCRF-CEM [1], with CCRF-CEM [2], with MCF7 [15] and with MCF7 [16] was 0% each time. The viability at 12.5 µM in the test with MCF7 [3] came to 116%; in the test with MCF7 [4] it was 109%; in the test on CCRF-CEM [6] it was 110%; with CCRF-CEM [7] it was 101%. The Activity turned out to be 91.4% in test [17] and 35.4% in test [18]. Further, the viability at 50 µM came to 16% in the test on MCF7 [5], 7% in the test on MCF7 [10], 0% in the test with CCRF-CEM [11] and 46% in the test on CCRF-CEM [14]. Besides, the viability at 25 µM in the test on CCRF-CEM [8] amounted to 104%; in the test on MCF7 [9], 97%; in the test on MCF7 [12], 101%; with CCRF-CEM [13] it was 88%.

As to `Brc1c(Br)c(Br)c2[nH]nnc2c1Br` [TETRABROMOBENZOTRIAZOLE], the viability at 100 µM with CCRF-CEM [2] was 61%; in the test on MCF7 [15], 109%. Further, the viability at 12.5 µM in the test on MCF7 [3] was 111%; in the test with CCRF-CEM [6] it was 115%. For the same molecule, the viability at 50 µM worked out at 120% in the test with MCF7 [5] and 118% in the test with CCRF-CEM [14]. Further, the viability at 25 µM with CCRF-CEM [8] worked out at 105%; in the test on MCF7 [12], 108%.

Take `CC(O)Cn1nc2c(Br)c(Br)c(Br)c(Br)c2n1` (racemic): the viability at 100 µM is 0% in the test on CCRF-CEM [1], 9% with CCRF-CEM [2], 15% in the test on MCF7 [15] and 6% with MCF7 [16]. Besides, the viability at 12.5 µM is 118% in the test with MCF7 [3], 99% with MCF7 [4], 125% in the test on CCRF-CEM [6] and 83% in the test on CCRF-CEM [7]. Also, the viability at 50 µM in the test on MCF7 [5] stood at 60%; with MCF7 [10] it was 16%; with CCRF-CEM [11] it was 53%; with CCRF-CEM [14] it was 108%. Also, the viability at 25 µM with CCRF-CEM [8] was found to be 102%; with MCF7 [9], 83%; with MCF7 [12], 96%; in the test on CCRF-CEM [13], 78%.

Take `C[C@H](O)Cn1nc2c(Br)c(Br)c(Br)c(Br)c2n1`: the viability at 100 µM was 0% in the test with CCRF-CEM [1], 9% with CCRF-CEM [2], 25% in the test with MCF7 [15] and 8% in the test on MCF7 [16]. Moreover, the viability at 12.5 µM in the test with MCF7 [3] was found to be 119%; in the test on MCF7 [4], 101%; in the test on CCRF-CEM [6], 104%; in the test on CCRF-CEM [7], 105%. The viability at 50 µM in the test with MCF7 [5] was determined as 58%; in the test with MCF7 [10] it was 10%; with CCRF-CEM [11] it was 58%; with CCRF-CEM [14] it was 72%. Besides, the viability at 25 µM with CCRF-CEM [8] was determined as 104%; in the test with MCF7 [9] it was 64%; with MCF7 [12], 67%; in the test on CCRF-CEM [13], 92%.

In the case of `C[C@H](O)CCn1nc2c(Br)c(Br)c(Br)c(Br)c2n1`, the viability at 100 µM was 10% in the test with CCRF-CEM [1], 36% in the test on CCRF-CEM [2], 31% in the test on MCF7 [15] and 6% with MCF7 [16]. The viability at 12.5 µM in the test with MCF7 [3] was 112%; with MCF7 [4] it was 100%; in the test with CCRF-CEM [6], 126%; in the test on CCRF-CEM [7] it was 92%. In addition, the viability at 50 µM came out at 105% in the test with MCF7 [5], 87% in the test with MCF7 [10], 42% with CCRF-CEM [11] and 86% with CCRF-CEM [14]. Further, the viability at 25 µM came out at 112% in the test with CCRF-CEM [8], 89% in the test on MCF7 [9], 102% in the test with MCF7 [12] and 89% in the test on CCRF-CEM [13].

Consider `OCC(O)Cn1nc2c(Br)c(Br)c(Br)c(Br)c2n1` (racemic), for which the viability at 100 µM with CCRF-CEM [1] is 1%; with CCRF-CEM [2], 8%; in the test on MCF7 [15], 53%; in the test with MCF7 [16] it was 8%. Besides, the viability at 12.5 µM in the test on MCF7 [3] worked out at 145%; in the test on MCF7 [4], 116%; in the test on CCRF-CEM [6] it was 78%; in the test on CCRF-CEM [7], 60%. For the same molecule, the viability at 50 µM in the test on MCF7 [5] is 98%; in the test with MCF7 [10], 109%; in the test on CCRF-CEM [11] it was 27%; in the test with CCRF-CEM [14], 47%. Further, the viability at 25 µM in the test with CCRF-CEM [8] stood at 89%; with MCF7 [9] it was 111%; with MCF7 [12], 156%; in the test on CCRF-CEM [13] it was 56%.

For `C[C@@H](O)CCn1nc2c(Br)c(Br)c(Br)c(Br)c2n1`, the viability at 100 µM in the test on CCRF-CEM [1] turned out to be 24%; in the test with CCRF-CEM [2], 36%; in the test on MCF7 [15] it was 18%; in the test on MCF7 [16], 0%. Besides, the viability at 12.5 µM turned out to be 109% in the test on MCF7 [3], 86% in the test on MCF7 [4], 88% with CCRF-CEM [6] and 94% with CCRF-CEM [7]. Besides, the viability at 50 µM with MCF7 [5] is 102%; in the test on MCF7 [10], 64%; with CCRF-CEM [11] it was 23%; with CCRF-CEM [14] it was 69%. The viability at 25 µM in the test with CCRF-CEM [8] was 81%; in the test with MCF7 [9], 77%; with MCF7 [12], 105%; with CCRF-CEM [13], 71%.

For the origin of these results see ChEMBL document CHEMBL3351930, “Synthesis of novel chiral TBBt derivatives with hydroxyl moiety. Studies on inhibition of human protein kinase CK2α and cytotoxicity properties” (Eur J Med Chem, 2014).
